A melting point compilation (Tetko et al.; mined from patent text by program, amines drawn as free bases though some values may be those of a salt)

Point of comparison: `CCOC(=O)C1=C(COC(C)=O)Nc2nc(N)nc(N)c2C1c1cccc([N+](=O)[O-])c1` (centres undefined), melting point 219 °C. Against it:
- COc1ccc2c(c1OC)C(=O)OC21CN(C)Cc2ccccc21 (centres undefined) — lower, 193 to 194 °C
- COc1ccc(C(C)(O)CO)cc1CN[C@H]1C2CCN(CC2)[C@H]1C(c1ccccc1)c1ccccc1 (some centres undefined) — lower, 65.5 to 82.8 °C
- N#Cc1c(F)c(F)c(CO)c(F)c1F — lower, 50 °C
- CS(=O)(=O)NC[C@@H]1CN(c2ccc(N3CCC(O)(CN=[N+]=[N-])CC3)c(F)c2)C(=O)O1 — lower, 142 to 144 °C
- Cc1ccc(S(=O)(=O)OC2CCc3c(c4ccccc4n3C)C2)cc1 (centres undefined) — lower, 104 to 106 °C
- O=[N+]([O-])c1ccc(Cl)cc1NC1CCN(Cc2ccccc2)CC1 — lower, 84 °C
- Cc1cccc(NC(=O)NCC(=O)N(CC(=O)N2CCCCC2C)c2ccccc2)c1 (racemic) — lower, 188 °C
- COc1ccc(-c2ccc(C(=N)NO)cc2)cc1-c1nc2cc(C(=N)NO)ccc2[nH]1 — higher, > 340 °C
- CCC(CC)(CC(=O)Nc1cccc(OCc2ccc3ccc(F)cc3n2)c1)C(=O)O — lower, 92 to 93 °C
- COc1ccc2cc([C@H](C)C(=O)ON3C(=O)c4ccccc4C3=O)ccc2c1 — lower, 110 to 112 °C
- COC(=O)C(Cc1ccc(Cl)cc1Cl)c1c(Cl)cccc1Cl (centres undefined) — lower, 115 °C
- CC(Cc1ccc(Oc2cc(N3CCN(Cc4ccccc4)CC3)ncn2)cc1)(Oc1ccccc1)C(=O)O (centres undefined) — lower, 107 to 109 °C
- COCCNc1nc(C)nc2c1nnn2-c1ccc(C(C)C)cc1Br — lower, 134 to 136 °C
- CCCCCC(C)C(C)c1cc(O)c(CN2CCN(C)CC2)c(O)c1 (centres undefined) — lower, 129 to 133 °C
- CCCc1nn(-c2ccc(C(F)(F)F)cn2)cc1CCCOc1cc(CCC(=O)O)n(-c2ccccc2)n1 — lower, 149 to 150 °C
- O=C(CSC1c2ccccc2COc2ccc(OCc3ccc4ccc(Cl)cc4n3)cc21)NS(=O)(=O)c1ccccc1 (centres undefined) — lower, 130 to 135 °C
- Nc1cc(-n2c(=O)n(-c3ccccc3)c3ccccc32)ccn1 — lower, 184 to 185 °C
- CCc1nc2c(cnn2CC)c(NC2CCOCC2)c1CNC(=O)c1cccc(C(=O)NCc2ccc(Cl)c(-c3cccc(CN4CCNC(C)C4)c3)c2)c1 (centres undefined) — lower, 117 to 120 °C
- CCCCc1c(/C=C/C(=O)Oc2ccc([N+](=O)[O-])cc2)ccc2c(OC)cccc12 — lower, 115 to 116 °C
- OCc1cc(Br)cc(I)c1 — lower, 110 to 112 °C
- CCn1c2ccccc2c2cc(NC(=O)c3c(C)cccc3C)ccc21 — lower, 192 to 193 °C
- CCCOc1cc(Oc2ccc(C(F)(F)F)cn2)ccc1CCCOc1c(CC(=O)O)cccc1OC — lower, 78 to 79 °C
- COc1ccc(-c2nc(Cl)sc2-c2ccc(OC)cc2)cc1 — lower, 92 to 94 °C
- CS(=O)(=O)Nc1cc2c(cc1Oc1ccccc1)C(=O)C(Sc1ccccc1)(Sc1ccccc1)C2 — lower, 162 °C
- C=Cc1ccc(NC(=O)C(C)C)nc1 — lower, 77 to 78 °C
- CN(C(=O)c1ccc(Cl)c(Cl)c1)C1CCN(C)C12CCCCC2 (centres undefined) — lower, 138 to 140 °C
- CNC(=O)[C@@H]1CCCN1S(=O)(=O)c1ccc(Cl)c(COc2cccc3c(-n4ccnc4)cc(C)nc23)c1Cl — lower, 90 °C
- COC1(OCCc2nc(C(C)C)c(Sc3cc(Cl)cc(Cl)c3)n2C)c2ccccc2-c2ccccc21 — lower, 130 to 131 °C
- COc1ccc(-c2c(Cl)c(CCl)nc3sc4c(c23)CCN(Cc2ccccc2)C4)cc1OC — lower, 171 to 172 °C
- ClCc1ccc(CCl)o1 — lower, 27 to 28 °C
- CC(C)COc1ccc2c(c1)c(=O)n(CCC(=O)O)c(=O)n2Cc1c[nH]c2ccccc12 — lower, 199 to 201 °C
- COC(=O)c1cc(OC)c([N+](=O)[O-])cc1NC(C)=O — lower, 141 to 143 °C
- CC(=O)OCC1(c2ccccc2)CCC(=O)CC1 — lower, 74 to 79 °C
- Brc1ccsc1Cc1c[nH]cn1 — lower, 212 to 214 °C
- CN(O)C(=O)c1ccc(NCCCc2ccccc2)cc1 — lower, 107 to 108 °C
- CC(C)(C)OC(=O)c1ncn2c1C1CCCN1C(=O)c1ncccc1-2 (centres undefined) — higher, 230 to 231 °C
- O=[N+]([O-])c1cc(Br)cc2[nH]c(CCl)nc12 — lower, 148 to 150 °C
- OC1(C2CC2)c2ccccc2OCc2ncccc21 (centres undefined) — lower, 210 to 212 °C
- O=C(Nc1ccc(OC(F)(F)F)cc1)NC1CCN(C(=O)CN2CCNCC2)CC1 — lower, 111 to 122 °C
- Cn1c(Nc2c(Cl)cccc2Cl)nc2ccc3c(c21)C(=O)NC(C)(C)N3 — higher, 238 to 239 °C
- COc1cc(C(=O)C(C)C)cc([N+](=O)[O-])c1O — lower, 85 to 87 °C
- N#Cc1ccc(Cc2cccnc2)cc1 — lower, 155 to 157 °C
- O=C(Nc1cnc2sc3c(c2c1-c1ccccc1Cl)CCC3)c1ccc(F)cc1F — not separable, 219 to 220 °C
- CC(C)[C@@H]1OC(=O)N[C@@H]1C(=O)OCc1ccccc1 — lower, 99 to 101 °C
- N#Cc1ccc(OCCC2CCN(c3cc(Cl)nnc3Cl)CC2)cc1 — lower, 138 to 139 °C
- CCC#CCOc1cc(/C=C/C(=O)Nc2ccccc2C(=O)O)ccc1OC — lower, 124 to 125 °C
- N#CCC(O)(c1ccc(-c2ccccc2)cc1)c1ccc(-c2ccccc2)cc1 — lower, 168 to 170 °C
- O=C(NNS(=O)(=O)c1ccccc1)c1ccc2c(c1)CCO2 — lower, 181 to 183 °C
- NN1C=Nc2ccc(Cl)cc2C1(O)c1ccccc1Cl (centres undefined) — lower, 198 °C
- CC(C)c1cccc(C(C)C)c1NC(=O)CN1CCN(c2cccc(Sc3nc4ccccc4[nH]3)c2)CC1 — lower, 123 to 125 °C
- OCCCc1ccccc1OCc1coc(/C=C/c2ccccc2)n1 — lower, 76 to 77 °C
- COc1ccc(C(=O)c2ccc(OCC(=O)O)c(Cl)c2Cl)cc1 — lower, 158 to 159 °C
- CCOC(=O)NC(=O)C(C#N)=CNc1cccc(F)c1 — lower, 170 to 171 °C
- CCOC(=O)Cn1nc(-c2cc(C(C)(C)C)c(O)c(C(C)(C)C)c2)c2cccnc21 — lower, 117 to 120 °C
- COC(=O)Nc1nc2ccc(SC[Si](C)(C)C)cc2[nH]1 — lower, 189 to 191 °C
- CCC(CC)c1cccc(C[C@H]2C(=O)O[C@H](c3ccccc3)[C@H](c3ccccc3)N2C(=O)OC(C)(C)C)c1 — lower, 143 to 144 °C
- COc1nc(N)nc(-c2ccc(S(C)=O)cc2)c1-c1ccc(=O)n(C(C)C)n1 (centres undefined) — lower, 127 to 130 °C
- COc1ccc(CNC(=O)c2cc(C)ccc2N)cc1 — lower, 144 to 145 °C
- CCc1nc2c(N)nc(C)c(C)c2n1CCOCCN — lower, 152 to 154 °C
- CCOC(=O)c1c(CCc2c[nH]nn2)nc2sc3c(c2c1-c1ccc(OC)c(OC)c1)CCN(C(=O)c1ccccc1)C3 — lower, 184 to 185 °C
- CCCc1nc2ccccc2c(C(=O)O)c1Oc1ccc(-c2ccccc2C(N)=O)cc1 — higher, 230 °C
- N#Cc1cc(N2C(=O)C3=C(CCCC3)C2=O)c(F)cc1Cl — lower, 160 to 162 °C
- CSc1nc(=O)n(Cc2ccccc2)c2ncn(COCc3ccccc3)c12 — lower, 194 to 195 °C
- Cc1[nH]c2ccccc2c1C(C)c1cccnc1 (centres undefined) — lower, 139 to 141 °C
- Cc1cc2cc(/C(=C\CO)c3ccc(I)cc3)ccc2o1 — lower, 103 to 113 °C
- Cc1nn(C(C)C(=O)N(C)C)c(C)c1-c1ccccc1 (centres undefined) — lower, 122 to 124 °C
- COc1cc(C2(C)COc3c(OC)cc(C=O)cc32)ccc1O (centres undefined) — lower, 162 to 165 °C
- Cc1[nH]cnc1CSCCNc1ncc(Cc2ccccc2)cc1C#N — lower, 105 to 106 °C
- OC(Cn1cncn1)(c1ccc(F)cc1F)C(F)(F)F (centres undefined) — lower, 110 to 111 °C
- COCOc1ccccc1-c1cc(-c2ccc(OC)c(C(=O)OC)c2)c(C#N)c(NC(=O)c2cccs2)n1 — lower, 105 to 106 °C
- CC(=O)CC1=C(O)CCCC1=O — lower, 80 to 81 °C
- O=C1COc2ccc(C3=Cc4ccccc4SC3c3ccccc3)cc2N1 (centres undefined) — higher, 226 to 227 °C
- COC(=O)[C@@H]1C[C@H](OS(=O)(=O)c2ccccc2Br)C(=O)[C@@H]2[C@@]3(C)C[C@@H](c4ccoc4)OC(=O)[C@H]3CC[C@]21C — lower, 162 to 163 °C
- FC(F)Sc1nnc(-c2ccccn2)s1 — lower, 90 to 92 °C
- CN1CCc2cc(-c3ccc4c(c3)CCN(CCN3CCCC3)C4=O)ccc2C1=O — higher, 225 to 226 °C
- Cc1ccc(N2CN(c3ccccc3)c3[nH]ncc3C2=O)cc1 — higher, 260 to 262 °C
- COc1nc(C(=O)NC(C)(C)C)c(C(=O)O)s1 — lower, 120 to 122 °C
- O=C(O)c1ccc(Oc2c(-c3ccc(O)cc3)c(C(F)(F)F)cc3ccccc23)cc1 — higher, 244 to 245 °C
- O=c1[nH]c2ccc(CCBr)cc2o1 — lower, 148 to 151 °C
- OCc1c(-c2ccccc2)nn2c1-c1ccccc1CC2 — lower, 185 to 187 °C
- CNC(=O)NCCn1c(-c2ccc(CN3CCOCC3)cc2C)csc1=Nc1ccc(F)c(C)c1 — lower, 130 to 135 °C
- Nc1nc2c(ncn2C2CC(O)C(CO)O2)c(=O)[nH]1 (centres undefined) — higher, > 300 °C
- OCC(O)Cc1cccc(Cc2ccccc2)c1OCc1ccccc1 (centres undefined) — lower, 55 to 58 °C
- CCCc1cc2cc(OC)ccc2[nH]1 — lower, 49 to 50 °C
- Cn1nc(Cc2ccc([N+](=O)[O-])cc2)oc1=O — lower, 115 to 116 °C
- CN1CCN(c2nc3sc4c(NCc5ccccn5)ncnc4c3c3c2COC(C)(C)C3)CC1 — not separable, 218 to 219 °C
- COc1ccc2c(c1)S(=O)(=O)c1ccccc1C(=O)N2 — higher, 244 to 246 °C
- N#Cc1ccc(Cn2cc(C=C3C(=O)NC(=O)NC3=O)c3ccccc32)cc1 — higher, > 300 °C
- Cc1cnc2c(c1)C(O)C(Cc1ccc(C#N)cc1)CC2 (centres undefined) — lower, 174 to 175 °C
- Nc1ncc(-c2ccc(F)c(F)c2)nc1C(=O)Nc1cccnc1 — higher, 232 to 234 °C
- CC1(COc2ccc(Cc3nnn[nH]3)cc2)CCCCC1=NO (centres undefined) — lower, 153 to 156 °C
- COc1ccccc1C(=O)Nc1ccc(N2CCOCC2)cc1C(C)=O — lower, 158 to 160 °C
- CCC(O)(c1ccc(O)cc1)c1ccc(Cl)cc1 (centres undefined) — lower, 148 to 149 °C
- O=c1c2ccccc2ccc2ccc(I)cc12 — lower, 97.5 to 99 °C
- CCc1nc(C(=O)c2ccc(Cl)cc2Cl)c(C=O)n1C(CC)CC — lower, 85 to 86 °C
- CCN(CC)CCCNC(=S)N(CCS(=O)(=O)c1ccccc1)C(C)C — lower, 120 to 121 °C
- CCN(CC)C(=O)n1cnc(S(=O)(=O)CC2CCCCO2)n1 (centres undefined) — lower, 122 °C
- COc1cccc(CN2CCc3cc(O)c(OC)cc3C2C)c1 (centres undefined) — lower, 97 to 99 °C
